The series concerns healthy mice. Put plainly: Repeated-dose safety in healthy mice. In kind it is in vivo. The following applies: dose four times higher than the effective dose, daily, for 28 days. The source says: Accordingly, the peptide of the invention is suitable for chronic use. In addition, the peptide of the invention was shown effective when administered intravenously (IV), intraperitoneally (IP) or in combination of these two modes of delivery.

Where no end group is shown, it is not given here.

Regarding LPPLPYP [SEQ ID NO: 1, LPPLPYP], the Side effects result is recorded as “did not initiate any detectable side effect”.

Source of the values: patent publication US11852634B2, “Use of AKT phosphorylation as a biomarker for prognosing neurodegenerative diseases and treating same” (Yeda Research and Development Co. Ltd., priority 2011, dated 2023).
